Holding throughout (assay type): cell-based
In experiment [1] the target is GEMS receptors with BclXL:LD3 in HEK293T cells (Homo sapiens, UniProt Q07817). The protocol: HEK293T cells were seeded in a 96-well plate 24 h before transfection. The transfection mix in each well consisted of 3 ng of constitutive human CMV promoter driven mammalian STAT3 expression vector (PhCMV-STAT3-pA), 30 ng of STAT3-induced reporter expression (OStat3-PhCMVmin-SEAP-pA) and 50 ng of expression vectors for each GEMS receptor chain (PSV40-IgK-(drughigh receptor)-EpoRm-IL-6RBm-pA and PSV40-IgK-(druglow receptor-GGGGSX3-LD3)-EpoRm-IL-6RBm-pA). For the specific drughigh receptor and druglow receptor used in the different cellular assays, they are indicated as wild type or with mutations. Then, plasmid DNA was mixed with 50 μl opti-MEM (Thermo Fisher) and 600 ng of polyethyleneimine (Polysciences, catalog no. 24765-1). […]
(§1) SEAP activity (U l^−1) in cell culture supernatants was quantified by kinetic measurements at 405 nm (1 minute per measurement for 30 cycles) of absorbance increase due to phosphatase-mediated hydrolysis of para-nitrophenyl phosphate (pNPP). […]
production of HEK293T cells. […] SEAP quantifications were performed to measure the protein production and WST-8 was used to test the cell proliferation. For cell proliferation assay, WST-8 was added after 24 hours of drug incubation, and measured its absorbance at 450 nm 4 hours later. […]

Experiment [2] deals with GEMS receptors with CBPnavi (BclXL–LD3 and Bcl2), STAT3-driven SEAP in HEK293T cells. The experiment is described as follows: GEMS SEAP reporter assay, CBPnavi. Here is the method:
HEK293T cells were seeded in a 96-well plate 24 h before transfection. The transfection mix in each well consisted of 3 ng of constitutive human CMV promoter driven mammalian STAT3 expression vector (PhCMV-STAT3-pA), 30 ng of STAT3-induced reporter expression (OStat3-PhCMVmin-SEAP-pA) and 50 ng of expression vectors for each GEMS receptor chain (PSV40-IgK-(drughigh receptor)-EpoRm-IL-6RBm-pA and PSV40-IgK-(druglow receptor-GGGGSX3-LD3)-EpoRm-IL-6RBm-pA). For the specific drughigh receptor and druglow receptor used in the different cellular assays, they are indicated as wild type or with mutations. […] For drug treatment experiments, drugs were added 12 h post-transfection and incubated with cells for 24 h before the SEAP reporter detection assay.
Binding affinities of SPR drug competition assays were calculated using three-parameter nonlinear regression in GraphPad Prism (v.8.3.0). Representative data of cell assays are presented as individual values and mean values (bars). n = 3 refers to biological replicates. All IC50 or EC50 values of cell assays reported were calculated using four-parameter nonlinear regression ± s.d. Bandpass features of cutoff concentrations and Bandwidth90% were estimated based on the curve fitted using bell-shaped curve nonlinear regression in GraphPad Prism (v.8.3.0).

Experiment [3] addresses GEMS receptors with Bcl2:LD3 in HEK293T cells (Homo sapiens, UniProt P10415). The experiment is described as follows: GEMS SEAP reporter assay, Bcl2:LD3 complex disruption. Set-up: key: SEAP activity in U/L. Conditions: Supp Fig 3a. The protocol: HEK293T cells were seeded in a 96-well plate 24 h before transfection. The transfection mix in each well consisted of 3 ng of constitutive human CMV promoter driven mammalian STAT3 expression vector (PhCMV-STAT3-pA), 30 ng of STAT3-induced reporter expression (OStat3-PhCMVmin-SEAP-pA) and 50 ng of expression vectors for each GEMS receptor chain (PSV40-IgK-(drughigh receptor)-EpoRm-IL-6RBm-pA and PSV40-IgK-(druglow receptor-GGGGSX3-LD3)-EpoRm-IL-6RBm-pA). For the specific drughigh receptor and druglow receptor used in the different cellular assays, they are indicated as wild type or with mutations. Then, plasmid DNA was mixed with 50 μl opti-MEM (Thermo Fisher) and 600 ng of polyethyleneimine (Polysciences, catalog no. 24765-1). For drug treatment experiments, drugs were added 12 h post-transfection and incubated with cells for 24 h before the SEAP reporter detection assay.
as §1

Molecules are shown by their SMILES. Values joined by “and” are separate entries in the source; they are usually repeats but may differ in a detail not shown here. Equal entries are not always repeated. Where two headings read alike, the source gives them in different places.

Chain of GEMS receptors with Bcl2:LD3 in HEK293T cells (P10415 whole entry): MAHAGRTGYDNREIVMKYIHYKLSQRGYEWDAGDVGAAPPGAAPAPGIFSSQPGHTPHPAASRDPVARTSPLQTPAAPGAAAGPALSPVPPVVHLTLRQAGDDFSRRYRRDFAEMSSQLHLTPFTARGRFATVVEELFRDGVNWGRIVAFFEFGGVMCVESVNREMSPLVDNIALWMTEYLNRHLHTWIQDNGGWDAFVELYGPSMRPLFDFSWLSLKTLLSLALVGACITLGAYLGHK
Chain of GEMS receptors with BclXL:LD3 in HEK293T cells (Q07817 whole entry): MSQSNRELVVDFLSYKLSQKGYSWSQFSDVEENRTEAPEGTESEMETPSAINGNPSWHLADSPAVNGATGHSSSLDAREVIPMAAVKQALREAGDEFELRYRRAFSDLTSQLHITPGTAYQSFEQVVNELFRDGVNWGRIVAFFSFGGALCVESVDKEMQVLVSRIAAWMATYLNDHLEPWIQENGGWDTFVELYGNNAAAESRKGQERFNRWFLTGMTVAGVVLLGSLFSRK

Turning to `CC1(C)CCC(c2ccc(Cl)cc2)=C(CN2CCN(c3ccc(C(=O)NS(=O)(=O)c4ccc(N[C@H](CCN5CCOCC5)CSc5ccccc5)c(S(=O)(=O)C(F)(F)F)c4)cc3)CC2)C1` [Navitoclax], the “more potent activity to BclXL than to Bcl2” value in experiment [1] is “approximately 4.4 fold”. Further, the “Dip (bell-shaped fit, best-fit value)” value in experiment [2] (CBPnavi, Fig 3c) stood at 146.8. The “Plateau1 (bell-shaped fit, best-fit value)” value in experiment [2] (CBPnavi, Fig 3c) was 13.3. Also, the “Plateau2 (bell-shaped fit, best-fit value)” value in experiment [2] (CBPnavi, Fig 3c) is on record as 20.77. In addition, the “nH1 (bell-shaped fit, best-fit value)” value in experiment [2] (CBPnavi, Fig 3c) is reported as -2.607. Besides, the “nH2 (bell-shaped fit, best-fit value)” value in experiment [2] (CBPnavi, Fig 3c) was -2.347. Moreover, the EC50 in experiment [2] (Homo sapiens, HEK-293T, read-out: EC50_1 (bell-shaped fit, best-fit value)) came out at 66.5 nM; in experiment [2] (Homo sapiens, HEK-293T, read-out: EC50_2 (bell-shaped fit, best-fit value)), 2850 nM; in experiment [2] (Homo sapiens, HEK-293T, read-out: EC50 of the ON phase) it was 65 nM. For the same compound, in experiment [2] (Homo sapiens, HEK-293T, read-out: IC50 of the OFF phase), the IC50 came out at 2820 nM. Further, the “dose response (SEAP)” value is 217.89 and 244.414 and 201.569 in experiment [3] (Navitoclax 1 nM); 251.97 and 247.153 and 223.02 in experiment [3] (Navitoclax 3.18 nM); 225.391 and 249.837 and 220.973 in experiment [3] (Navitoclax 10 nM); 203.543 and 185.176 and 172.987 in experiment [3] (Navitoclax 31.8 nM); 207.157 and 228.932 and 148.919 in experiment [3] (Navitoclax 100 nM); 189.257 and 207.554 and 159.852 in experiment [3] (Navitoclax 318 nM). The “dose response (SEAP)” value in experiment [3] (Navitoclax 1000 nM) is 160.635 and 174.477 and 98.5023; in experiment [3] (Navitoclax 3180 nM), 138.28 and 140.892 and 97.3043; in experiment [3] (Navitoclax 10000 nM) it was 109.056 and 131.507 and 65.8832.
